According to patent US10610524B2, “Cellular hydration compositions” (Eastpond Laboratories Limited, priority 2010, dated 2020):

Tests used:
[1] = NIR spectroscopy of water bonding with cyclodextrin additives; format: physicochemical
Description: Hydration bond energies in pure waters and solutions of the same waters containing cyclodextrin compounds were assayed using IR spectroscopy in the near and middle infrared ranges. To record linear signals throughout an entire wavelength range, attenuation from water absorbance was minimized with a short optical length cuvette.
NIR range spectra were registered on a FOSS NIR Systems, Inc. 6500 spectrometer and Sample Transport Module (STM) using a 1 mm-es cuvette. […]
Three samples of water were used in the present study. A first water sample (USA I) was obtained from the U.S. and was purified by reverse osmosis, carbon filtration, ultraviolet light exposure, membrane filtration to 0.2 micron absolute, and ozonation. A second water sample (USA II) was also obtained from the U.S. A third water sample (BP I) was obtained from Budapest, Hungary.
The following cyclodextrins were added to the above described water samples at a concentration range of 0.1%-5% w/v: • α-cyclodextrin (αCD also denoted as ACD), Lot. No. CYL-2322. • β-cyclodextrin (βCD also denoted as BCD). Lot. No. CYL-2518/2. • γ-cyclodextrin (γCD also denoted as GCD), Lot. No. CYL-2323. • 2-hydroxypropyl-β-cyclodextrin (HPβCD, HPBCD), DS*=3.5, Lot. No. CYL-2232. • 2-hydroxypropyl-γ-cyclodextrin (HPCD, HPGCD), DS*=4.8, Lot. No. CYL-2258. • carboxymethyl-β-cyclodextrin (CMBCD), Lot. No. CYL-2576. • quaternary-ammonium-β-cyclodextrin (QABCD).

[2] = test system: C. elegans nematodes; test: Lifespan of C. elegans in hydration modified water media; format: in vivo; settings: for Animals alive: USA I water; for effect on C. elegans survival: added to culture media, result in words
Description: C. elegans nematodes were grown in petri-type dishes containing normal nutrient liquid media prepared alternatively with USA I water (described in Example 2) lacking any further additive component (control) or the same water supplemented with a parent α-, β-, or γ-cyclodextrin, and/or a bioactive agent, as an active component of cellular hydration. Fifty±3 worms were transferred to each dish. Each condition was repeated in triplicate. Experiments were repeated for USA II and BP I waters described in Example 2. A. Addition of parent α-, β- and γ-cyclodextrins. B. Addition of L-arginine and nicotinamide. C. Addition of inclusion complexes of cyclodextrins with L-arginine and nicotinamide.

[3] = test system: Wheat seeds (Triticum aestivum); test: Wheat seed germination kinetics in additive-modified water; format: in vivo; settings: additive 0.5% w/v in USA I water
Description: Wheat seeds (Triticum aestivum) were germinated using USA I, USA II, and BP I waters described for Example 2. Germination rate using un-supplemented (control) water was compared to that with the same water variously supplemented with a cyclodextrin component, and/or a bioactive agent, as an active component of cellular hydration. For each condition, ten seeds were placed in continuous water contact in a Petri-type dish kept at 25 C in 12 hr light/dark cycles. Photometric images were recorded on days 1 to 6 after seeding. The percentage of seeds germinated was calculated and compared as a function of time and of the applied additive concentrations.
Water samples for seed germination were used alone with no additive, or containing cyclodextrins, or containing clathrate inclusion complexes of cyclodextrin with L-arginine or with nicotinamide (both obtained from Sigma Chemical Co.; St. Louis, Mo.), or with L-carnitine (from Lonza AG; Switzerland). […] Additive solutions were prepared fresh on the day of germination start.
Parent cyclodextrins α-cyclodextrin (ACD), β-cyclodextrin (BCD), and γ-cyclodextrin (GCD), were obtained from Wacker Chemie (Munich, Germany). The following derivatized cyclodextrins were obtained from Cyclolab Ltd. (Budapest, Hungary): hydroxypropylated-beta-cyclodextrin (DS˜3)(HPBCD), carboxymethylated-β-cyclodextrin (DS˜3.5)(CMBCD), 2-hydroxy-3-N,N,N-trimethylamino)propyl-β-cyclodextrin chloride (DS˜3.6)(QABCD).
Germination kinetics in control and additive-modified water under identical conditions were quantified as the percentage of the seeds having a sprout. Each determination consisted of 100 seeds for each parameter. Results are reported in Table 1, below, and in FIGS. 11-13.

[4] = wavelength region 900-1200 nm, FIG. 7
[5] = life span 10 days, derivatized cyclodextrin 0.1% w/v in media, Table 4
[6] = life span 15 days, derivatized cyclodextrin 0.1% w/v in media, Table 4
[7] = life span 18 days, derivatized cyclodextrin 0.1% w/v in media, Table 4
[8] = life span 10 days, parent cyclodextrin 0.1% w/v in media, Table 3
[9] = life span 15 days, parent cyclodextrin 0.1% w/v in media, Table 3
[10] = life span 18 days, parent cyclodextrin 0.1% w/v in media, Table 3

water-bond interactions, second-derivative NIR spectra ([1]; 1200-1500 nm, FIG. 8)	water-bond interactions, second-derivative NIR spectra ([1]; 1620-1710 nm, FIG. 9)	water-bond interactions, second-derivative NIR spectra ([1]; 2170-2370 nm, FIG. 10)	water-bond interactions, second-derivative NIR spectra [1, 4]	Compound	Animals alive [2, 5]	Animals alive [2, 6]	Animals alive [2, 7]	Animals alive [2, 8]	Animals alive [2, 9]	Animals alive [2, 10]	other results
further significantly modified	significantly modified	significantly modified	further significantly modified	carboxymethyl-β-cyclodextrin	94 % of initial	11 % of initial	0 % of initial	–	–	–	–
–	–	–	–	OC[C@H]1O[C@@H]2O[C@H]3[C@H](O)[C@@H](O)[C@@H](O[C@H]4[C@H](O)[C@@H](O)[C@@H](O[C@H]5[C@H](O)[C@@H](O)[C@@H](O[C@H]6[C@H](O)[C@@H](O)[C@@H](O[C@H]7[C@H](O)[C@@H](O)[C@@H](O[C@H]8[C@H](O)[C@@H](O)[C@@H](O[C@H]1[C@H](O)[C@H]2O)O[C@@H]8CO)O[C@@H]7CO)O[C@@H]6CO)O[C@@H]5CO)O[C@@H]4CO)O[C@@H]3CO [β-Cyclodextrin, β-cyclodextrin]	–	–	–	100 % of initial	18 % of initial	0 % of initial	–
–	–	–	–	N=C(N)NCCC[C@H](N)C(=O)O [L-Arg, L-arginine, reference compound]	–	–	–	–	–	–	wheat seed germination rate ([3]; day 0, Table 1): 0 percentage of total seeds; wheat seed germination rate ([3]; day 1, Table 1): 0 percentage of total seeds; wheat seed germination rate ([3]; day 2, Table 1): 30 percentage of total seeds; wheat seed germination rate ([3]; day 3, Table 1): 45 percentage of total seeds; wheat seed germination rate ([3]; day 4, Table 1): 60 percentage of total seeds; effect on C. elegans survival [2]: little effect
–	–	–	–	NC(=O)c1cccnc1 [nicotinamide, reference compound]	–	–	–	–	–	–	wheat seed germination rate ([3]; day 0, Table 2): 0 percentage of the seeds; wheat seed germination rate ([3]; day 1, Table 2): 0 percentage of the seeds; wheat seed germination rate ([3]; day 2, Table 2): 4 percentage of the seeds; wheat seed germination rate ([3]; day 3, Table 2): 10 percentage of the seeds; wheat seed germination rate ([3]; day 4, Table 2): 60 percentage of the seeds; effect on C. elegans survival [2]: little effect
significantly modified	significantly modified	significantly modified	further significantly modified	CC(O)COC[C@H]1O[C@@H]2O[C@H]3[C@H](O)[C@@H](O)[C@@H](O[C@H]4[C@H](O)[C@@H](O)[C@@H](O[C@H]5[C@H](O)[C@@H](O)[C@@H](O[C@H]6[C@H](O)[C@@H](O)[C@@H](O[C@H]7[C@H](O)[C@@H](O)[C@@H](O[C@H]8[C@H](O)[C@@H](O)[C@@H](O[C@H]1[C@H](O)[C@H]2O)O[C@@H]8COCC(C)O)O[C@@H]7COCC(C)O)O[C@@H]6COCC(C)O)O[C@@H]5COCC(C)O)O[C@@H]4COCC(C)O)O[C@@H]3COCC(C)O (stereo partly drawn) [HP-β-Cyclodextrin, 2-hydroxypropyl-β-cyclodextrin]	96 % of initial	17 % of initial	0 % of initial	–	–	–	–
–	–	–	–	OC[C@H]1O[C@@H]2O[C@H]3[C@H](O)[C@@H](O)[C@@H](O[C@H]4[C@H](O)[C@@H](O)[C@@H](O[C@H]5[C@H](O)[C@@H](O)[C@@H](O[C@H]6[C@H](O)[C@@H](O)[C@@H](O[C@H]7[C@H](O)[C@@H](O)[C@@H](O[C@H]8[C@H](O)[C@@H](O)[C@@H](O[C@H]9[C@H](O)[C@@H](O)[C@@H](O[C@H]1[C@H](O)[C@H]2O)O[C@@H]9CO)O[C@@H]8CO)O[C@@H]7CO)O[C@@H]6CO)O[C@@H]5CO)O[C@@H]4CO)O[C@@H]3CO [γ-Cyclodextrin, γ-cyclodextrin]	–	–	–	100 % of initial	13 % of initial	2 % of initial	–
–	–	–	–	OC[C@H]1O[C@@H]2O[C@H]3[C@H](O)[C@@H](O)[C@@H](O[C@H]4[C@H](O)[C@@H](O)[C@@H](O[C@H]5[C@H](O)[C@@H](O)[C@@H](O[C@H]6[C@H](O)[C@@H](O)[C@@H](O[C@H]7[C@H](O)[C@@H](O)[C@@H](O[C@H]1[C@H](O)[C@H]2O)O[C@@H]7CO)O[C@@H]6CO)O[C@@H]5CO)O[C@@H]4CO)O[C@@H]3CO [α-Cyclodextrin, α-cyclodextrin]	–	–	–	100 % of initial	20 % of initial	2 % of initial	wheat seed germination rate ([3]; day 0, Table 1): 0 percentage of total seeds; wheat seed germination rate ([3]; day 0, Table 2): 0 percentage of the seeds; wheat seed germination rate ([3]; day 1, Table 1): 0 percentage of total seeds; wheat seed germination rate ([3]; day 1, Table 2): 11 percentage of the seeds; wheat seed germination rate ([3]; day 2, Table 1): 48 percentage of total seeds; wheat seed germination rate ([3]; day 2, Table 2): 18 percentage of the seeds; wheat seed germination rate ([3]; day 3, Table 1): 70 percentage of total seeds; wheat seed germination rate ([3]; day 3, Table 2): 68 percentage of the seeds; wheat seed germination rate ([3]; day 4, Table 1): 85 percentage of total seeds; wheat seed germination rate ([3]; day 4, Table 2): 92 percentage of the seeds
significantly modified	significantly modified	further significantly modified	significantly modified	2-hydroxy-3-N,N,N-trimethylamino)propyl-β-cyclodextrin chloride [Quaternaryammonium-β-Cyclodextrin]	98 % of initial	13 % of initial	2 % of initial	–	–	–	modified micro-structure of hydrogen bonds in bulk water (spectral changes), ranking of effect ([1]; among cyclodextrin-treated water samples, FIGS. 9 and 10): largest
